Assay results taken from ChEMBL document CHEMBL4138222, “Cytotoxicity, molecular modeling, cell cycle arrest, and apoptotic induction induced by novel tetrahydro-[1,2,4]triazolo[3,4-a]isoquinoline chalcones” (Eur J Med Chem, 2018).
Converted amounts (≈) assume the structure as drawn. The source made the active and inactive calls. The rule behind the calls is not given here.

Columns and labels:
[1] = system: A549; test: Cytotoxicity against human A549 cells assessed as inhibition of cell proliferation after 48 hrs by MTT assay; format: functional, cell-based; settings: A549, 48 h
[2] = system: MCF7; test: Cytotoxicity against human MCF7 cells assessed as inhibition of cell proliferation after 48 hrs by MTT assay; format: functional, cell-based; settings: MCF7, 48 h
[3] = system: HCT-116; test: Cytotoxicity against human HCT116 cells assessed as inhibition of cell proliferation after 48 hrs by MTT assay; format: functional, cell-based; settings: HCT-116, 48 h
[4] = system: HepG2; test: Cytotoxicity against human HepG2 cells assessed as inhibition of cell proliferation after 48 hrs by MTT assay; format: functional, cell-based; settings: HepG2, 48 h
[5] = Cytotoxicity against human HFB4 cells assessed as inhibition of cell proliferation after 48 hrs by MTT assay; format: cell-based
[6] = system: MCF7; test: Upregulation of p53 mRNA expression in human MCF7 cells at IC50 after 48 hrs by RT-PCR method; format: functional, cell-based
[7] = system: MCF7; test: Upregulation of Bax mRNA expression in human MCF7 cells at IC50 after 48 hrs by RT-PCR method; format: functional, cell-based
[8] = system: MCF7; test: Upregulation of caspase-3 mRNA expression in human MCF7 cells at IC50 after 48 hrs by RT-PCR method; format: functional, cell-based
[9] = system: MCF7; test: Downregulation of BCL-2 mRNA expression in human MCF7 cells at IC50 after 48 hrs by RT-PCR method; format: functional, cell-based
[10] = system: MCF7; test: Downregulation of MMP1 mRNA expression in human MCF7 cells at IC50 after 48 hrs by RT-PCR method; format: functional, cell-based
[11] = system: MCF7; test: Downregulation of CDK4 mRNA expression in human MCF7 cells at IC50 after 48 hrs by RT-PCR method; format: functional, cell-based
[12] = system: MCF7; test: Cell cycle arrest in human MCF7 cells assessed as accumulation at G0/G1 phase at 27.15 ug/ml after 48 hrs by propidium iodide staining-based flow cytometric method (reference value: 71.13%); format: functional
[13] = system: MCF7; test: Cell cycle arrest in human MCF7 cells assessed as accumulation at S phase at 27.15 ug/ml after 48 hrs by propidium iodide staining-based flow cytometric method (reference value: 23.5%); format: functional
[14] = system: MCF7; test: Cell cycle arrest in human MCF7 cells assessed as accumulation at G2/M phase at 27.15 ug/ml after 48 hrs by propidium iodide staining-based flow cytometric method (reference value: 4.82%); format: functional
[15] = system: MCF7; test: Induction of apoptosis in human MCF7 cells at 27.15 ug/ml after 48 hrs by propidium iodide staining-based flow cytometric method (reference value: 0.55%); format: functional
[16] = system: MCF7; test: Induction of apoptosis in human MCF7 cells assessed as cell aggregates at 27.15 ug/ml after 48 hrs by propidium iodide staining-based flow cytometric method (reference value: 4.49%); format: functional
[17] = system: MCF7; test: Induction of apoptosis in human MCF7 cells assessed as cell debris at 27.15 ug/ml after 48 hrs by propidium iodide staining-based flow cytometric method (reference value: 2.75%); format: functional
[18] = system: MCF7; test: Induction of apoptosis in human MCF7 cells assessed as induction of caspase-3 activity by measuring caspase-3 levels at 27.15 ug/ml after 24 hrs ELISA (reference value: 0.0197 ng/ml); format: functional
[19] = system: MCF7; test: Cell cycle arrest in human MCF7 cells assessed as accumulation at G0/G1 phase at 50.05 ug/ml after 48 hrs by propidium iodide staining-based flow cytometric method (reference value: 71.13%); format: functional
[20] = system: MCF7; test: Cell cycle arrest in human MCF7 cells assessed as accumulation at S phase at 50.05 ug/ml after 48 hrs by propidium iodide staining-based flow cytometric method (reference value: 23.5%); format: functional
[21] = system: MCF7; test: Cell cycle arrest in human MCF7 cells assessed as accumulation at G2/M phase at 50.05 ug/ml after 48 hrs by propidium iodide staining-based flow cytometric method (reference value: 4.82%); format: functional
[22] = system: MCF7; test: Induction of apoptosis in human MCF7 cells at 50.05 ug/ml after 48 hrs by propidium iodide staining-based flow cytometric method (reference value: 0.55%); format: functional
[23] = system: MCF7; test: Induction of apoptosis in human MCF7 cells assessed as cell aggregates at 50.05 ug/ml after 48 hrs by propidium iodide staining-based flow cytometric method (reference value: 4.49%); format: functional
[24] = system: MCF7; test: Induction of apoptosis in human MCF7 cells assessed as cell debris at 50.05 ug/ml after 48 hrs by propidium iodide staining-based flow cytometric method (reference value: 2.75%); format: functional
[25] = system: MCF7; test: Induction of apoptosis in human MCF7 cells assessed as induction of caspase-3 activity by measuring caspase-3 levels at 50.05 ug/ml after 24 hrs ELISA (reference value: 0.0197 ng/ml); format: functional

Row | Structure (SMILES) | IC50 [1] [µg/mL] | IC50 [2] [µg/mL] | IC50 [3] [µg/mL] | IC50 [4] [µg/mL] | IC50 [5] [µg/mL] | other results
1 | COc1cc2c(cc1OC)C1N(CC2)C(C(=O)/C=C/c2ccccc2)=NN1c1ccccc1 (stereo not drawn) | 78.1 (≈ 178 µM) | 61.4 (≈ 140 µM) | 625 (≈ 1420 µM) | 139 (≈ 317 µM) | 52.1 (≈ 119 µM) | 
2 | COc1cc2c(cc1OC)C1N(CC2)C(C(=O)/C=C/c2cc(OC)c(OC)c(OC)c2)=NN1c1ccccc1 (stereo not drawn) | 156 (≈ 295 µM) | 27.1 (≈ 51.3 µM) |  | 107 (≈ 202 µM) |  | Activity [6]: Active; Activity [7]: Active; Activity [8]: Active; Activity [9]: Active; Activity [10]: Active; Activity [11]: Active; Activity [12]: 66.11%; Activity [13]: 16.01%; Activity [14]: 0.6%; Activity [15]: 17.28%; Activity [16]: 7.92%; Activity [17]: 5.71%; Activity [18]: 0.4108 ng/mL
3 | COc1cc2c(cc1OC)C1N(CC2)C(C(=O)/C=C/c2ccc(Cl)cc2)=NN1c1ccccc1 (stereo not drawn) | 156 (≈ 329 µM) | 151 (≈ 319 µM) | 622 (≈ 1310 µM) | 141 (≈ 297 µM) | 57.2 (≈ 121 µM) | 
4 | COc1ccc(/C=C/C(=O)C2=NN(c3ccccc3)C3c4cc(OC)c(OC)cc4CCN23)cc1 (stereo not drawn) | 190 (≈ 404 µM) | 68.5 (≈ 146 µM) | 243 (≈ 518 µM) | 218 (≈ 464 µM) | 115 (≈ 245 µM) | 
5 | O=c1[nH]cc(F)c(=O)[nH]1 [FLUOROURACIL] | 66 (≈ 507 µM) | 178 (≈ 1370 µM) | 201 (≈ 1550 µM) | 237 (≈ 1820 µM) |  | 
6 | COc1cc2c(cc1OC)C1N(CC2)C(C(=O)/C=C/c2ccc([N+](=O)[O-])cc2)=NN1c1ccccc1 (stereo not drawn) | 207 (≈ 427 µM) | 50 (≈ 103 µM) | 114 (≈ 236 µM) | 478 (≈ 986 µM) | 245 (≈ 506 µM) | Activity [6]: Active; Activity [7]: Active; Activity [8]: Active; Activity [9]: Active; Activity [10]: Active; Activity [11]: Active; Activity [19]: 74.52%; Activity [20]: 17.06%; Activity [21]: 0%; Activity [22]: 8.72%; Activity [23]: 4.85%; Activity [24]: 3.88%; Activity [25]: 0.3573 ng/mL
7 | COc1cc2c(cc1OC)C1N(CC2)C(C(=O)/C=C/c2ccc3c(c2)OCO3)=NN1c1ccccc1 (stereo not drawn) | 201 (≈ 417 µM) | 225 (≈ 466 µM) | 187 (≈ 388 µM) | 122 (≈ 253 µM) | 51.9 (≈ 107 µM) | 
